From ChEMBL document CHEMBL1158132, “26,27-cyclosterols and other polyoxygenated sterols from a marine sponge Topsentia sp” (2006)
Values after ≈ are worked out from the molar mass of the structure shown.

Assays:
Assay type in all cases: functional
Conditions in all cases: read-out: ED50 (the source's name)
A549 = test: Cytotoxicity against human A549 cells
SK-OV-3 = test: Cytotoxicity against human SKOV3 cells
SK-MEL-2 = test: Cytotoxicity against human SK-MEL-2 cells
XF498 = test: Cytotoxicity against human XF498 cells
HCT-15 = test: Cytotoxicity against human HCT-15 cells

SMILES	EC50 (A549)	EC50 (SK-OV-3)	EC50 (SK-MEL-2)	EC50 (XF498)	EC50 (HCT-15)
CC(C)=C[C@@H](C)[C@H]1CC[C@@H]2[C@]1(C)CC[C@H]1[C@]23C=C[C@]2(CCCC[C@]12C)OO3	30 µg/mL (≈ 81 µM)	19.4 µg/mL (≈ 52.4 µM)	25.9 µg/mL (≈ 69.9 µM)	> 30 µg/mL	21.4 µg/mL (≈ 57.7 µM)
CC(C)[C@@H](C)/C=C/[C@@H](C)[C@H]1CC[C@@H]2[C@]1(C)CC[C@H]1[C@]23C=C[C@]2(CCCC[C@]12C)OO3	17.5 µg/mL (≈ 42.4 µM)	17.8 µg/mL (≈ 43.1 µM)	19.4 µg/mL (≈ 47 µM)	24.7 µg/mL (≈ 59.9 µM)	21.1 µg/mL (≈ 51.1 µM)
CC(C)C/C=C/[C@@H](C)[C@H]1CC[C@H]2C3=C(CC[C@]12C)[C@@]1(C)CC[C@H](O)CC1=CC3=O	> 30 µg/mL	> 30 µg/mL	> 30 µg/mL	> 30 µg/mL	38.4 µg/mL (≈ 96.8 µM)
CC(C)[C@@H](C)/C=C/[C@@H](C)[C@H]1CCC2=C3[C@H](O)[C@@H]4O[C@@]45C[C@@H](O)CC[C@]5(C)[C@H]3CC[C@@]21C	> 30 µg/mL	17.9 µg/mL (≈ 41.8 µM)	> 30 µg/mL	> 30 µg/mL	17.9 µg/mL (≈ 41.8 µM)
CC(C)C/C=C/[C@@H](C)[C@H]1CC[C@@H]2[C@]1(C)CC=C1[C@]23C=C[C@]2(CCCC[C@]12C)OO3	6.3 µg/mL (≈ 15.9 µM)	6.3 µg/mL (≈ 15.9 µM)	5.2 µg/mL (≈ 13.1 µM)	11.4 µg/mL (≈ 28.7 µM)	4.7 µg/mL (≈ 11.9 µM)
COc1cccc2c1C(=O)c1c(O)c3c(c(O)c1C2=O)C[C@@](O)(C(=O)CO)C[C@@H]3O[C@H]1C[C@H](N)[C@H](O)[C@H](C)O1 [DOXORUBICIN]	0.08 µg/mL (≈ 0.147 µM)	0.19 µg/mL (≈ 0.35 µM)	0.08 µg/mL (≈ 0.147 µM)	0.07 µg/mL (≈ 0.129 µM)	0.13 µg/mL (≈ 0.239 µM)
CCC(C)/C=C/[C@@H](C)[C@H]1CC[C@@H]2[C@]1(C)CC=C1[C@]23C=C[C@]2(CCCC[C@]12C)OO3 (stereo not given in full) [TOPSENTISTEROL A3]	5.4 µg/mL (≈ 13.6 µM)	7.1 µg/mL (≈ 17.9 µM)	4.6 µg/mL (≈ 11.6 µM)	6.2 µg/mL (≈ 15.6 µM)	4.2 µg/mL (≈ 10.6 µM)
CC(C)[C@H](C)/C=C/[C@@H](C)[C@H]1CC[C@H]2C3=C(CC[C@]12C)[C@@]1(C)CC[C@H](O)C[C@@]12O[C@H]2[C@H]3O [TOPSENTISTEROL B4]	9.7 µg/mL (≈ 22.6 µM)	7.8 µg/mL (≈ 18.2 µM)	11.3 µg/mL (≈ 26.4 µM)	19 µg/mL (≈ 44.3 µM)	14.1 µg/mL (≈ 32.9 µM)
CC(C)[C@H](C)/C=C/[C@@H](C)[C@H]1CCC2=C3[C@H](O)[C@@H]4O[C@@]45C[C@@H](O)CC[C@]5(C)[C@H]3CC[C@@]21C [TOPSENTISTEROL B5]	13.9 µg/mL (≈ 32.4 µM)	7.9 µg/mL (≈ 18.4 µM)	5.5 µg/mL (≈ 12.8 µM)	> 30 µg/mL	18.4 µg/mL (≈ 42.9 µM)
C[C@H](CC[C@@H](C)[C@H]1CC[C@H]2C3=CC(=O)[C@@]4(O)C[C@@H](O)CC[C@]4(C)[C@@]3(O)CC[C@]12C)[C@@H]1C[C@H]1C [TOPSENTISTEROL C1]	7.7 µg/mL (≈ 16.8 µM)	4.2 µg/mL (≈ 9.16 µM)	11.3 µg/mL (≈ 24.6 µM)	17.7 µg/mL (≈ 38.6 µM)	6.1 µg/mL (≈ 13.3 µM)
CO[C@@H]1C=C2[C@@H]3CC[C@H]([C@H](C)/C=C/[C@@H](C)C(C)C)[C@@]3(C)CC[C@]2(O)[C@@]2(C)CC[C@H](O)C[C@]12O [TOPSENTISTEROL C3]	5.6 µg/mL (≈ 12.2 µM)	7.8 µg/mL (≈ 16.9 µM)	11.5 µg/mL (≈ 25 µM)	4.7 µg/mL (≈ 10.2 µM)	4.3 µg/mL (≈ 9.33 µM)
CC(C)[C@H](C)/C=C/[C@@H](C)[C@H]1CC[C@H]2C3=C(CC[C@]12C)[C@@]1(C)CC[C@H](O)CC1=CC3=O [TOPSENTISTEROL D3]	> 30 µg/mL	> 30 µg/mL	24.5 µg/mL (≈ 59.7 µM)	> 30 µg/mL	33.6 µg/mL (≈ 81.8 µM)
